According to US8993001B2, “Methods and compositions for treating feline hyperthyroidism” (Hill's Pet Nutrition, Inc., priority 2006, dated 2015):

Key:
[1] = test system: cats diagnosed with hyperthyroidism; assay: Serum total T4 in hyperthyroid cats, six-week study (Example 1); type: in vivo, cat
Experimental: (§1) A group of five cats diagnosed with hyperthyroidism was fed food B for six weeks. Another five cats diagnosed with hyperthyroidism were given 2.5 mg methimazole orally once a day for six weeks while they were fed food B. Eight cats diagnosed with hyperthyroidism were given 2.5 mg methimazole orally once a day for six weeks while they were fed a commercially available cat food. The thyroid hormone profiles and serum chemistries of all cats were measured at zero, two, four, and six weeks.

[2] = Serum creatinine in hyperthyroid cats, six-week study (Example 1); type: in vivo, cat
Experimental: as §1, with “Food B1 and food B2 were mixed in a 1:1 ratio, thus resulting in food B. A group” for “A group”

[3] = cats diagnosed with hyperthyroidism, six weeks, methimazole 2.5 mg orally once a day where given

Change in Serum Creatinine Levels [2, 3]: +0.46 mg/dL
SMILES: Cn1cc[nH]c1=S [Methimazole, methimazole]
total T4 concentration relative to the normal total T4 concentration range ([1]; after six weeks): did not reach the normal total T4 concentration range | Change in Serum Total T4 Levels [1, 3]: -20.3 nmol/L | serum creatinine concentration relative to the normal creatinine concentration range ([2]; after six weeks, normal range 0.8-1.8 mg/dL): a bit higher than the 0.8-1.8 mg/dL normal creatinine concentration range
